Experimental data taken from BindingDB's records for PubMed 9226416 (University of Sydney, 1997).

Assays:
[1] = target: T1, Gamma-aminobutyric acid receptor subunit alpha-3 (Homo sapiens, UniProt P34903)
T1 sequence (P34903 whole entry): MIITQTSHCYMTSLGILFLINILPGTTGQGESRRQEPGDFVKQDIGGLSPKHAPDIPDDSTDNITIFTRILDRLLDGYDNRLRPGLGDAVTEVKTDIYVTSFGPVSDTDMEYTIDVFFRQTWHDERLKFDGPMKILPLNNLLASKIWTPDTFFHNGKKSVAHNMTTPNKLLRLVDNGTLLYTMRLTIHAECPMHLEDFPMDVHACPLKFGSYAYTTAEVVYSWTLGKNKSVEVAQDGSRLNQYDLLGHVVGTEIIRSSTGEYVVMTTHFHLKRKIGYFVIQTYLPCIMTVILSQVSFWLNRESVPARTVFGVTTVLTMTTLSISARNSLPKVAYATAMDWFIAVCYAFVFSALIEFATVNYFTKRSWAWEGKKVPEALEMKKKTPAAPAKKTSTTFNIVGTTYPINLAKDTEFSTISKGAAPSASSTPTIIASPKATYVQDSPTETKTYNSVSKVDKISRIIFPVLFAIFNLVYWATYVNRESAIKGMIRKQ

[2] = target: Gamma-aminobutyric acid (GABA) B receptor 1 (Rattus norvegicus, UniProt Q6MFX8)
Sequence of Gamma-aminobutyric acid (GABA) B receptor 1 (Q6MFX8 whole entry): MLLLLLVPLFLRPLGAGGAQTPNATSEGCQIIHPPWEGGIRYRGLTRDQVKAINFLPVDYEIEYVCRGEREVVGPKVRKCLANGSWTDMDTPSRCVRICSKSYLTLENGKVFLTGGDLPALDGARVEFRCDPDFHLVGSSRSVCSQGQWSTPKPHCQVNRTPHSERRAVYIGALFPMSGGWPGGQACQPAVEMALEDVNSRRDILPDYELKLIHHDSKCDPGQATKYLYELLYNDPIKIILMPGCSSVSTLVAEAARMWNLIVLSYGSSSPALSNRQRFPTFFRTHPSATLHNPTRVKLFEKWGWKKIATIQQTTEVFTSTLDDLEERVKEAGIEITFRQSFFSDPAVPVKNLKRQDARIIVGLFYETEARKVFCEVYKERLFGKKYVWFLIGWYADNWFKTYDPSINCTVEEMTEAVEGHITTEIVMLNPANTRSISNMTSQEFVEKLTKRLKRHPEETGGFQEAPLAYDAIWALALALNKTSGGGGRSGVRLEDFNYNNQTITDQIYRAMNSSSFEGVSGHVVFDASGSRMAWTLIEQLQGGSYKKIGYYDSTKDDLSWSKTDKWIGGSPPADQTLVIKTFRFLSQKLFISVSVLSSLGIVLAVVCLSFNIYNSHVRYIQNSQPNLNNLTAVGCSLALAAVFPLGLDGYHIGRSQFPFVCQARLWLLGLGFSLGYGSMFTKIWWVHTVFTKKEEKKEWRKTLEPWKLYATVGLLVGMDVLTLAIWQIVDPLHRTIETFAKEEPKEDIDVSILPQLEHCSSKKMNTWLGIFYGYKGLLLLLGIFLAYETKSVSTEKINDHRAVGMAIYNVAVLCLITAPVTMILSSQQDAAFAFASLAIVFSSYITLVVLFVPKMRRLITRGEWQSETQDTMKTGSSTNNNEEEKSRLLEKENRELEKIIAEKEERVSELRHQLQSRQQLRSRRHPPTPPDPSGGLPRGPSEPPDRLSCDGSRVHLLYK

Compound: NCCC[PH](=O)O [(3-aminopropyl)phosphinic acid]
- Ki [1]: 2.47 µM
- Ki [2]: 0.005 µM

Compound: CP(=O)(O)CCCN [CGP35024]
- Ki [1]: 0.75 µM

Compound: CCCCP(=O)(O)CCCN [CGP36742]
- Ki [1]: > 10 µM
